Data from paper PMC10568017, “A quest for the stereo-electronic requirements for selective agonism for the neurotrophin receptors TrkA and TrkB in 17-spirocyclic-dehydroepiandrosterone derivatives” (Frontiers in Molecular Neuroscience, 2023).
Entries after “also recorded” stand apart in the source; their conditions may differ.

Assays:
[1] = test system: NIH-3T3 TrkB-expressing cell line; assay: CellTox Green cytotoxicity assay in NIH-3T3 cells stable transfected with TrkB under serum deprivation; type: cell-based; conditions: compound 1 μM, 24 h, after 24 h serum starvation; BDNF 500 ng/mL as control
Description: We tested compounds on three cellular systems, primary cortical astrocytes from 2-day-old mice (as a natively TrkB-expressing neuronal population), and NIH-3T3 fibroblasts stable transfected with TrkB and NIH-3T3 naïve cells. Cells were grown with high-glucose DMEM medium supplemented with 10% fetal bovine serum (FBS), 100 μg/mL streptomycin, and 100 units/mL penicillin at 37°C in a humidified 5% CO2 atmosphere. Phosphorylation results presented here are in primary astrocytes, and cell toxicity assay results are in NIH-3T3 stable transfected cells with TrkB.
NIH-3T3 stable transfected cells with TrkB were plated in 96-well plates at a density of 10,000 cells/well, before carrying out serum starvation for 24 h. Cells were then treated for 24 h with either BDNF at 500 ng/mL (control) or the compounds at 1 μM.
For the cell toxicity assay, we used CellTox™ Green Dye (2,000 × , Promega) for the visualization of dead cells and Hoechst 33,342 solution (10,000 × ) for total cells. A ZEISS Axio Vert.A1 microscope was used for image capture, and the ImageJ software (https://imagej.nih.gov/ij/) was used for analysis. The number of CellTox positive cells was normalized against the total number of cells observed in each image.
The NIH-3T3 TrkB cell line, which is stable and transfected to specifically express the TrkB receptor, was used for the screening of the new compounds for their ability to protect cells from serum deprivation-induced apoptosis through the activation of the TrkB receptor. Cell death was induced by serum deprivation for 24 h and then BDNF (500 ng/mL), the native neurotrophin ligand of the TrkB receptor, or compounds ENT-A007, ENT-A009, ENTA025, ENT-A026, ENT-A033, ENT-A034, ENT-A035, ENT-A036, ENT-A037, ENT-A046, ENT-A047, ENT-A055, and ENT-A056 (1 μM) were added to the media for 24 h.

PC12 cells = assay: CellTox assay, survival of PC12 cells under serum deprivation; type: cell-based; conditions: for protection of PC12 cells from serum deprivation-induced cell death (CellTox): compound 500 nM, 24 h, after 4 h serum starvation, NGF 100 ng/mL as control (Figure 9); for protection of PC12 cells from serum deprivation-induced death (CellTox): compound 1 μM, NGF 100 ng/mL as control (Figure 10)
Description: PC12 cells were obtained from LGC Promochem and cultured under specified conditions. Cells were grown in DMEM medium (Thermo Fischer Scientific, cat# 10566016) containing 10% horse serum (Thermo Fischer Scientific, cat# 16050122), 5% fetal bovine serum (Thermo Fischer Scientific, cat# 10270106), 100 units/mL penicillin, and 0.1 mg/mL streptomycin (Thermo Fischer Scientific, cat# 15140122) at 5% CO2 and 37°C. Cells were used between passages 5 and 20.
CellTox assay (G8742, Promega, Leiden, Belgium) was used to assess the survival of PC12 cells under serum deprivation conditions. PC12 cells were plated in 96-well plates, starved from serum for 4 h, and subsequently treated with NGF (100 ng/mL) or compound (500 nM) for 24 h. CellTox assay reagents and Hoescht (1:10,000, H3570, Invitrogen, Massachusetts, USA) were then added to each well for 30 min, and then, cells were imaged with a Zeiss AXIO Vert A1 fluorescent microscope. CellTox positive cells were normalized to the total number of cells for each image.
Initially, we tested compounds ENT-A002, ENT-A007, ENT-A009, ENTA025, ENT-A026, ENT-A033, ENT-A034, ENT-A035, ENT-A036, ENT-A037, ENT-A046, ENT-A047, ENT-A055, and ENT-A056 for their ability to protect PC12 cells from serum deprivation-induced cell death as well as for their ability to activate TrkA downstream pro-survival signaling kinases Akt and Erk1/2 (Figures 9A–C). We opted to employ PC12 cells, which express receptors TrkA and p75 and have been routinely used for investigating NGF-TrkA signaling. PC12 cells were subjected to a period of nutrient deprivation (without fetal bovine serum and horse serum in their culture medium) for 4 h. Following this, NGF (100 ng/mL) or one of the compounds (500 nM or 1 μM) was administered and allowed to interact with the cells for 24 h. Following that, CellTox and Hoescht dyes were added and cells were imaged to assess cell death. Control cases involved cells cultured in full medium (serum), cells under starvation conditions (serum-free), and cells under starvation conditions treated with DMSO (SF+DMSO).

[2] = Metabolic stability in pooled human liver microsomes; type: in vitro ADME; conditions: 1 μM; for residual of time zero: pooled human liver microsomes 0.5 mg/mL, t = 60 min, NADPH; for parent structure loss (depletion) class: pooled human liver microsomes, 60 min
Description: For metabolic stability assessment, pooled human liver microsomes were employed at 0.5 mg/mL. Incubation conditions were optimized to ensure linear metabolite formation with respect to protein concentration and reaction time. All test compounds were assessed at 1 μM based on our ADMET standard operating procedures and protocols, also published previously (1 μM was selected based on our ADMET standard operating procedures and protocols also published previously) (Rogdakis et al., [2022]; Yilmaz et al., [2022]). Approximately 1 mM of NADPH served as a cofactor. Reactions took place in triplicates at 37°C. Negative and positive controls (low vs. rapid clearance) were included for low vs. rapid clearance. After 60 min, reactions were terminated.
Parent structure loss is classified as very slow (<5%), slow (5–19%), moderate (20–50%), fast (50–80%), or very fast (>80%). Such categories have been defined according to set criteria, namely, high metabolism (t1/2 value of <30 min), moderate metabolism (30 min <t1/2 value of <60 min), and low metabolism (t1/2 value of >60 min) (EMA, [2012], [2013]; FDA, [2020]).

For `C[C@]12CC[C@H](O)CC1=CC[C@@H]1[C@@H]2CC[C@@]2(C)[C@H]1CC[C@@]21CC=CCO1` [ENT-A002, (3S,17R)-3′,6′-dihydrospiro[5-androstene-17,2′-pyran]-3-ol], the “protection of NIH-3T3-TrkB cells from serum deprivation-induced cell death (CellTox)” value (shortened to “protection of NIH-3T3-TrkB cells”) [1] was “did not show any protective effects” and the “protection of PC12 cells from serum deprivation-induced cell death (CellTox)” value (PC12 cells) was “did not show any protective effects”.
With `C[C@]12CC[C@H](O)CC1=CC[C@@H]1[C@@H]2CC[C@@]2(C)[C@H]1CC[C@@]21CC=C(CO)CO1` [ENT-A008] the “protection of NIH-3T3-TrkB cells” value [1] was “none of these compounds provided any protective effects” and the “protection of PC12 cells from serum deprivation-induced cell death (CellTox)” value (PC12 cells) was “none of these compounds provided any protective effects”.
In the case of `COC(=O)CSCC1=CCC2(CCC3C4CC=C5CC(O)CCC5(C)C4CCC32C)OC1` [ENT-A026, Methyl (3S,17R)-3-hydroxy-3’,6’-dihydrospiro[5-androstene-17,2’-pyran]-5’-yl-methylthio acetate], the “protection of NIH-3T3-TrkB cells” value [1] is reported as “none of these compounds provided any protective effects” and the “protection of PC12 cells from serum deprivation-induced cell death (CellTox)” value (PC12 cells) is reported as “none of these compounds provided any protective effects”.
For `CC12CCC(O)CC1=CCC1C2CCC2(C)C1CCC21CC=C(CC#N)CO1` [ENT-A033, (3S,17R)-3-hydroxy-3′,6′-dihydrospiro[5-androstene-17,2′-pyran]-5′-yl-acetonitrile], the “protection of NIH-3T3-TrkB cells” value [1] was “none of these compounds provided any protective effects” and the “protection of PC12 cells from serum deprivation-induced cell death (CellTox)” value (PC12 cells) was “none of these compounds provided any protective effects”.
With `C[C@]12CC[C@H](O)CC1=CC[C@@H]1[C@@H]2CC[C@@]2(C)[C@H]1CC[C@@]21CC=C(CF)CO1` [ENT-A034] the “protection of NIH-3T3-TrkB cells” value [1] was “none of these compounds provided any protective effects” and the “protection of PC12 cells from serum deprivation-induced cell death (CellTox)” value (PC12 cells) was “none of these compounds provided any protective effects”.
For `COc1ccc(COCC2=CC[C@@]3(CC[C@H]4[C@@H]5CC=C6C[C@@H](O)CC[C@]6(C)[C@H]5CC[C@@]43C)OC2)cc1` [ENT-A035], the “protection of NIH-3T3-TrkB cells” value [1] was “none of these compounds provided any protective effects” and the “protection of PC12 cells from serum deprivation-induced cell death (CellTox)” value (PC12 cells) was “none of these compounds provided any protective effects”.
`C[C@]12CC[C@H](O)CC1=CC[C@@H]1[C@@H]2CC[C@@]2(C)[C@H]1CC[C@@]21CC=C(Cn2cc(CO)nn2)CO1` [ENT-A037, (3S,17R)-5′-[(4-(hydroxymethyl)-1H-1,2,3-triazol-1-yl)methyl]-3′,6′-dihydrospiro[5-androstene-17,2′-pyran]-3-ol] gave a melting point of 202 to 204 °C.
For `C[C@]12CC[C@H](O)CC1=CC[C@@H]1[C@@H]2CC[C@@]2(C)[C@H]1CC[C@@]21CC=C(Cn2cc(CC3CCCCC3)nn2)CO1` [ENT-A047, (3S,17R)-5′-[(4-(cyclohexylmethyl)-1H-1,2,3-triazol-1-yl)methyl]-3′,6′-dihydrospiro[5-androstene-17,2′-pyran]-3-ol], the melting point was 181 °C (dec.).
For `CC12CCC(O)CC1=CCC1C2CCC2(C)C1CCC21CC=C(C=C2CCC2)CO1` [ENT-A065, (3S,17R)-5′-(cyclobutylidenemethyl)-3′,6′-dihydrospiro[5-androstene-17,2′-pyran]-3-ol], the “protection of PC12 cells from serum deprivation-induced death (CellTox)” value (PC12 cells) was “promote cell survival as well as NGF does under stress conditions”.
In the case of `CC12CCC(O)CC1=CCC1C2CCC2(C)C1CCC21CC=C(C=CBr)CO1` [ENT-A066, (3S,17R)-5′-(2-bromovinyl)-3′,6′-dihydrospiro[5-androstene-17,2′-pyran]-3-ol], the “residual of time zero” value [2] is reported as over 95%, the “parent structure loss (depletion) class” value [2] is reported as “very slow (very slow (<5%))” and the “protection of PC12 cells from serum deprivation-induced death (CellTox)” value (PC12 cells) is reported as “found to promote PC12 cell survival during stress conditions; also recorded: promote cell survival as well as NGF does under stress conditions”.
For `CC=CC1=CCC2(CCC3C4CC=C5CC(O)CCC5(C)C4CCC32C)OC1` [ENT-A068, (E, Z) (3S,17R)-5′-(prop-1-en-1-yl)-3′,6′-dihydrospiro[5-androstene-17,2′-pyran]-3-ol], the “protection of PC12 cells from serum deprivation-induced death (CellTox)” value (PC12 cells) was “found to promote PC12 cell survival during stress conditions; also recorded: promote cell survival as well as NGF does under stress conditions”.
In the case of `CCC1CCC2(CCC3C4CC=C5CC(O)CCC5(C)C4CCC32C)OC1` [ENT-A069, (3S,17R)-5′-(ethyl)-3′,6′-tetrahydrospiro[5-androstene-17,2′-pyran]-3-ol], the “residual of time zero” value [2] is reported as 95%, the “parent structure loss (depletion) class” value [2] is reported as “slow (slow (5–19%))” and the “protection of PC12 cells from serum deprivation-induced death (CellTox)” value (PC12 cells) is reported as “found to promote PC12 cell survival during stress conditions; also recorded: promote cell survival as well as NGF does under stress conditions”.
For `CCC1=CCC2(CCC3C4CC=C5CC(O)CCC5(C)C4CCC32C)OC1` [ENT-A070, (3S,17R)-5′-ethyl-3′,6′-dihydrospiro[5-androstene-17,2′-pyran]-3-ol], the “residual of time zero” value [2] was over 95%, the “parent structure loss (depletion) class” value [2] was “very slow (very slow (<5%))” and the “protection of PC12 cells from serum deprivation-induced death (CellTox)” value (PC12 cells) was “found to promote PC12 cell survival during stress conditions; also recorded: promote cell survival as well as NGF does under stress conditions”.
`C[C@]12CC[C@H](O)CC1=CC[C@@H]1[C@@H]2CC[C@@]2(C)[C@H]1CCC21CC(=CC#N)C1` (stereo partly drawn) [ENT-A077] gave a melting point of 161 to 163 °C.
With `C[C@]12CC[C@H](O)CC1=CC[C@@H]1[C@@H]2CC[C@@]2(C)[C@H]1CCC21CC(=CC(=O)O)C1` (stereo partly drawn) [ENT-A080] the melting point was 221 °C (dec.).
